*1 amine or outer side, *2 acyl side, *3 side chain or, on linkers, in order; H or OH if unused. Where a SMILES comes first, the peptide text is derived from it. Bridges are numbered along the chain shown (N, C = ends). [ ]: non-standard residue; d: D form. The star is where a group is joined. ξ: configuration not given here. X3 = C[C@@H](C(=O)[*:2])N(Cc1ccc2ccccc2c1)[*:1]; Phe(4-Cl) = N[C@@H](Cc1ccc(Cl)cc1)C(=O)O; d2Nal = N[C@H](Cc1ccc2ccccc2c1)C(=O)O; dThr(3ξ) = CC(O)[C@@H](N)C(=O)O; NMeA = CN[C@@H](C)C(=O)O; ξF = NC(Cc1ccccc1)C(=O)O; Abu = CC[C@H](N)C(=O)O; X2 = CC(O)[C@H](CO)N*; Ahp = NCCCCCCC(=O)O; Bn = c1ccc(C*)cc1; ξC = NC(CS)C(=O)O

In the first assay the target is T1, Somatostatin receptor type 5 (Rattus norvegicus, UniProt P30938).
T1 sequence (P30938 whole entry): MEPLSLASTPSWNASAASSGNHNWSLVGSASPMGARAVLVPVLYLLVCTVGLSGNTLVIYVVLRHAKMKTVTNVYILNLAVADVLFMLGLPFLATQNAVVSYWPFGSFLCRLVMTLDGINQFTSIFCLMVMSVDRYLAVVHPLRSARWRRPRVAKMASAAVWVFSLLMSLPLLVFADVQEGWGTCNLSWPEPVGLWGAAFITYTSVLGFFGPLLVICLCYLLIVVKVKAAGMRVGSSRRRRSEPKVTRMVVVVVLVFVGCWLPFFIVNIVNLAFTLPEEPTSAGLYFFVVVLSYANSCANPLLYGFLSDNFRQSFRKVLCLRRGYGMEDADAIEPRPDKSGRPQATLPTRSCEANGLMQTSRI
As for `CC(O)[C@H](CO)NC(=O)[C@@H]1CSSCC(NC(=O)C(N)Cc2ccccc2)C(=O)N[C@H](Cc2ccccc2)C(=O)N[C@H](Cc2c[nH]c3ccccc23)C(=O)N[C@H](CCCCN)C(=O)N[C@H](C(C)O)C(=O)N1` (some centres not stated) (H-[ξF][ξC][dF][dW][dK][dThr(3ξ)]C-X2; disulfide 2-7), the Ki worked out at 0.57 nM. `C[C@@H](O)[C@@H]1NC(=O)[C@H](CCCCN)NC(=O)[C@@H](Cc2c[nH]c3ccccc23)NC(=O)[C@H](Cc2ccccc2)NC(=O)[C@@H]2CCCN2C(=O)[C@H](Cc2ccccc2)NC1=O` (cyclo(PF[dW]KTF)) returned an inhibition constant (Ki) of 3.23 nM. Molecule `CC(C)[C@@H]1NC(=O)[C@H](CCCCN)NC(=O)[C@@H](Cc2c[nH]c3ccccc23)NC(=O)[C@H](Cc2ccc(O)cc2)NC(=O)[C@@H](NC(=O)[C@H](N)Cc2ccc3ccccc3c2)CSSC[C@@H](C(=O)N[C@H](C(N)=O)[C@@H](C)O)NC1=O` [3-(2-Naphtyl)-D-Ala-L-Cys(1)-L-Tyr-D-Trp-L-Lys-L-Val-L-Cys(1)-L-Thr-NH2] registered a Ki of 0.1 nM. `CC[C@@H]1NC(=O)[C@H](CCCCN)NC(=O)[C@@H](Cc2c[nH]c3ccccc23)NC(=O)[C@H](Cc2ccc(O)cc2)NC(=O)[C@H](C)N(C)C(=O)[C@H](Cc2ccccc2)NC1=O` [BIM-23027] (cyclo([Abu]F[NMeA]Y[dW]K)) gave a Ki of 6.16 nM. As for `CC(C)[C@H](NC(=O)[C@H](CCCCN)NC(=O)[C@@H](Cc1c[nH]c2ccccc12)NC(=O)[C@H](Cc1ccc(O)cc1)NC(=O)[C@H](Cc1ccccc1)NC(=O)[C@@H](N)Cc1ccccc1)C(=O)N[C@@H](Cc1ccccc1)C(=O)N[C@H](C(N)=O)[C@@H](C)O` [BIM-23058] (H-FFY[dW]KVFT-NH2), affinity was put at a Ki of 1.2 nM.

`CC(C)C1NC(=O)C(CCCCN)NC(=O)C(Cc2c[nH]c3ccccc23)NC(=O)C(Cc2ccc(O)cc2)NC(=O)C(NC(=O)C(N)Cc2ccccc2)CSSCC(C(=O)NC(Cc2c[nH]c3ccccc23)C(N)=O)NC1=O` (configuration not stated) [CAS_71306] (H-FCYWKVCW-NH2; disulfide 2-7; configuration not given here) had a Ki of 1.58 nM.

`CC(C)C1NC(=O)C(CCCCN)NC(=O)C(Cc2c[nH]c3ccccc23)NC(=O)C(Cc2ccc(O)cc2)NC(=O)C(C)N(C)C(=O)C(Cc2ccccc2)NC1=O` (configuration not stated) [CAS_3086456] yielded an inhibition constant (Ki) of 5.49 nM. On to `C[C@H](O)[C@@H]1NC(=O)C(CCCCN)NC(=O)[C@@H](Cc2c[nH]c3ccccc23)NC(=O)C(Cc2ccccc2)NC(=O)C(Cc2ccccc2)NC(=O)C(CC(N)=O)NC(=O)C(CCCCN)NC(=O)CCCCC[C@H](C(=O)O)NC(=O)[C@@H](CO)NC(=O)[C@H]([C@H](C)O)NC(=O)[C@@H](Cc2ccc(O)cc2)NC1=O` (some centres not stated) [CGP-23996], for which the Ki was found to be 4.67 nM.

Regarding `CC(C)[C@H](NC(=O)[C@H](CCCCN)NC(=O)[C@@H](Cc1c[nH]c2ccccc12)NC(=O)[C@H](Cc1ccc(O)cc1)NC(=O)[C@H](C)NCc1ccc2ccccc2c1)C(=O)N[C@@H](C)C(=O)N[C@H](C(N)=O)[C@@H](C)O` [D-Nal-Ala-Tyr-D-Trp-Lys-Val-Ala-Thr-NH2] (H-[X3]Y[dW]KVAT-NH2), the inhibition constant (Ki) is 145 nM.

With `CC(CO)C(NC(=O)C1NC(=O)N[C@@H](Cc2ccc(O)cc2)C(=O)N[C@H](Cc2c[nH]c3ccccc23)C(=O)N[C@@H](CCCCN)C(=O)N[C@@H](C(C)CO)C(=O)NC(C(=O)N[C@@H](Cc2ccc3ccccc3c2)C(N)=O)SS1)C(N)=O` (stereo partly drawn) [D-Nal-c[Cys-Tyr-D-Trp-Lys-Thr-Cys]-Thr-NH2], the affinity, expressed as Ki, was 0.07 nM. In turn, `CC(C)[C@H](NC(=O)[C@H](CCCCN)NC(=O)[C@@H](Cc1c[nH]c2ccccc12)NC(=O)[C@H](Cc1ccc(O)cc1)NC(=O)[C@H](C)NC(=O)[C@H](N)Cc1ccccc1)C(=O)N[C@@H](C)C(=O)N[C@H](Cc1ccc2ccccc2c1)C(N)=O` [D-Phe-AIa-Tyr-D-Trp-Lys-Val-Ala-D-Nal-NH2] (H-[dF]AY[dW]KVA[d2Nal]-NH2) gave a Ki of 5.88 nM. In turn, `CC[C@@H]1NC(=O)[C@H](CCCCN)NC(=O)[C@@H](Cc2c[nH]c3ccccc23)NC(=O)[C@H](Cc2ccc(O)cc2)NC(=O)[C@@H](NC(=O)[C@H](N)Cc2ccccc2)CSSC[C@@H](C(=O)N[C@H](C(N)=O)[C@@H](C)O)NC1=O` [D-Phe-L-Cys(1)-L-Tyr-D-Trp-L-Lys-L-Abu-L-Cys(1)-L-Thr-NH2] displayed an inhibition constant Ki of 0.18 nM. For the molecule `C[C@@H](O)[C@@H]1NC(=O)[C@H](CCCCN)NC(=O)[C@@H](Cc2c[nH]c3ccccc23)NC(=O)[C@H](Cc2ccccc2)NC(=O)[C@H](Cc2ccc(Cl)cc2)NC(=O)CCCCCCNC(=O)[C@H](Cc2ccccc2)NC1=O` [L-362862] (cyclo([Ahp][Phe(4-Cl)]F[dW]KTF)), the Ki amounted to 0.46 nM. Still for that read-out and setting: in the case of `C[C@@H](Oc1ccccc1)[C@@H]1NC(=O)[C@H](CCCCN)NC(=O)[C@@H](Cc2c[nH]c3ccccc23)NC(=O)[C@H](Cc2ccccc2)NCCCCCCNC1=O` [c[Aha-Phe-D-Trp-Lys-Thr(Bzl)]] it was 51.3 nM.

Another assay deals with Somatostatin receptor type 4 (Mus musculus, UniProt P49660).
Chain of Somatostatin receptor type 4 (P49660 whole entry): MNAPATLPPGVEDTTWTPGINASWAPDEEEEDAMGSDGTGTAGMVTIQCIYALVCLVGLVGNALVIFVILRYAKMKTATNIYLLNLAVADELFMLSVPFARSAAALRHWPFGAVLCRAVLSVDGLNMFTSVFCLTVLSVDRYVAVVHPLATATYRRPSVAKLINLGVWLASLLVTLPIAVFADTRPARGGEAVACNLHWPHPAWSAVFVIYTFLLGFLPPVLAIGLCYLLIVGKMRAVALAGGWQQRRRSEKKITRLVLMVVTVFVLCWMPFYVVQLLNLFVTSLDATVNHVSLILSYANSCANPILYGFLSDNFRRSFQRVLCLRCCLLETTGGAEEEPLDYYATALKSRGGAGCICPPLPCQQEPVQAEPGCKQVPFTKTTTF
For the molecule `C[C@@H](O)[C@@H]1NC(=O)[C@H](CCCCN)NC(=O)[C@@H](Cc2c[nH]c3ccccc23)NC(=O)[C@H](Cc2ccccc2)NC(=O)[C@@H]2CCCN2C(=O)[C@H](Cc2ccccc2)NC1=O` (cyclo(PF[dW]KTF)), the Ki is 1000 nM.

Regarding `CC[C@@H]1NC(=O)[C@H](CCCCN)NC(=O)[C@@H](Cc2c[nH]c3ccccc23)NC(=O)[C@H](Cc2ccc(O)cc2)NC(=O)[C@H](C)N(C)C(=O)[C@H](Cc2ccccc2)NC1=O` [BIM-23027] (cyclo([Abu]F[NMeA]Y[dW]K)), affinity was put at a Ki of 1000 nM.

With `CC(C)[C@@H]1NC(=O)[C@H](CCCCN)NC(=O)[C@@H](Cc2c[nH]c3ccccc23)NC(=O)[C@H](Cc2ccc(O)cc2)NC(=O)[C@H](C)N(C)C(=O)[C@H](Cc2ccccc2)NC1=O` [CAS_3086456], the Ki came to 1000 nM. For the molecule `CC(C)[C@H](NC(=O)[C@H](CCCCN)NC(=O)[C@@H](Cc1c[nH]c2ccccc12)NC(=O)[C@H](Cc1ccc(O)cc1)NC(=O)[C@H](C)NC(=O)[C@H](N)Cc1ccc2ccccc2c1)C(=O)N[C@@H](C)C(=O)N[C@H](C(N)=O)[C@@H](C)O` [D-Nal-Ala-Tyr-D-Trp-Lys-Val-Ala-Thr-NH2] (H-[d2Nal]AY[dW]KVAT-NH2), the Ki is 1000 nM. On to `CC(C)[C@H](NC(=O)[C@H](CCCCN)NC(=O)[C@@H](Cc1c[nH]c2ccccc12)NC(=O)[C@H](Cc1ccc(O)cc1)NC(=O)[C@H](C)NC(=O)[C@H](N)Cc1ccccc1)C(=O)N[C@@H](C)C(=O)N[C@H](Cc1ccc2ccccc2c1)C(N)=O` [D-Phe-AIa-Tyr-D-Trp-Lys-Val-Ala-D-Nal-NH2] (H-[dF]AY[dW]KVA[d2Nal]-NH2), for which the inhibitory constant (Ki) was found to be 1000 nM. The same measure, in the same setting: for `C[C@@H](O)[C@@H]1NC(=O)[C@H](CCCCN)NC(=O)[C@@H](Cc2c[nH]c3ccccc23)NC(=O)[C@H](Cc2ccc(Cl)cc2)NC(=O)[C@H](Cc2ccccc2)NC(=O)CCCCCCNC(=O)[C@H](Cc2ccccc2)NC1=O` [L-362862] (cyclo([Ahp]F[Phe(4-Cl)][dW]KTF)) the value was 43.6 nM; for `CSCC[C@H](NC(=O)[C@H](C)NC(=O)[C@@H]1CCCN1C(=O)[C@H](CC(N)=O)NC(=O)[C@H](CO)NC(=O)[C@H](CC(N)=O)NC(=O)[C@H](C)NC(=O)[C@@H](N)CO)C(=O)N[C@@H](C)C(=O)N1CCC[C@H]1C(=O)N[C@@H](CCCNC(=N)N)C(=O)N[C@@H](CCC(=O)O)C(=O)N[C@@H](CCCNC(=N)N)C(=O)N[C@@H](CCCCN)C(=O)N[C@@H](C)C(=O)NCC(=O)N[C@H]1CSSC[C@@H](C(=O)O)NC(=O)[C@H](CO)NC(=O)[C@H]([C@@H](C)O)NC(=O)[C@H](Cc2ccccc2)NC(=O)[C@H]([C@@H](C)O)NC(=O)[C@H](CCCCN)NC(=O)[C@H](Cc2c[nH]c3ccccc23)NC(=O)[C@H](Cc2ccccc2)NC(=O)[C@H](Cc2ccccc2)NC(=O)[C@H](CC(N)=O)NC(=O)[C@H](CCCCN)NC1=O` [L-Ser-L-Ala-L-Asn-L-Ser-L-Asn-L-Pro-L-Ala-L-Met-L-Ala-L-Pro-L-Arg-L-Glu-L-Arg-L-Lys-L-Ala-Gly-L-Cys(1)-L-Lys-L-Asn-L-Phe-L-Phe-L-Trp-L-Lys-L-Thr-L-Phe-L-Thr-L-Ser-L-Cys(1)-OH], 0.28 nM. For the molecule `C[C@@H](OCc1ccccc1)[C@@H]1NC(=O)[C@H](CCCCN)NC(=O)[C@@H](Cc2c[nH]c3ccccc23)NC(=O)[C@H](Cc2ccccc2)NC(=O)CCCCCCNC1=O` [c[Aha-Phe-D-Trp-Lys-Thr(Bzl)]] (cyclo([Ahp]F[dW]KT(Bn))), the inhibition constant (Ki) was determined as 1000 nM.

In general, Ki refers to a dissociation constant, usually derived from enzyme kinetics or from competition with a known ligand. A low value points to higher affinity.

Values taken from BindingDB's records for doi:10.1007/BF00173012 (Sandoz Pharma, 1994).
